From patent publication US20200032271A1, “COMBINATION THERAPY WITH LIPOSOMAL ANTISENSE OLIGONUCLEOTIDES” (Bio-Path Holdings, Inc., priority 2016, published 2020)
[PEt] = P-ethoxy (ethyl phosphotriester) internucleoside linkage

Assay: Adverse events in study 2003-0578 (NCI CTCAE grading)
Details: all treatment groups
Text: Each participant who receives study drug will be closely monitored for AEs. An AE is any untoward medical occurrence associated with the use of a drug in humans, whether or not considered drug related. Adverse events include any signs, symptoms, illnesses, or diagnoses that appear or worsen during the course of the study. An AE may be an intercurrent illness, an injury, or any concomitant impairment of the participant's health. All AEs occurring at any time from the time of consent through the end of treatment visit will be reported regardless of the etiology of the event. The NCI's CTCAE v4.03 will be used for grading AEs.
The causal relationship to BP1001 IP or Das for all AEs will be assessed as follows: (1) definitely related—AEs clearly attributable to study regimen administration; (2) probably related—AEs for which there is a reasonable possibility of causal association to study regimen; (3) possibly related—AEs for which there is confounding by comorbidities, medications or other considerations but for which it is not unreasonable that the AE may have been caused by study regimen; or (4) not related—AEs that are considered clearly not causally related to study regimen, or for which there is a clear alternative explanation

BP1001: liposome-incorporated P-ethoxy antisense oligodeoxynucleotide (5′-ATATTTGGCGATGGCTTC-3′, SEQ ID NO: 1) specific to grb2 mRNA, in neutral DOPC liposomes (DNA, all [PEt], methylation of C not given here; incorporated in neutral DOPC liposomes)
3: Acidosis ≥Grade 3, number of patients (AML at enrollment (n = 30)) | Acute kidney injury ≥Grade 3, number of patients (AML at enrollment (n = 30)) | Dyspnea ≥Grade 3, number of patients (AML at enrollment (n = 30)) | Febrile neutropenia ≥Grade 3, number of patients (AML at enrollment (n = 30)) | Hypokalemia ≥Grade 3, number of patients (AML at enrollment (n = 30)) | Hypotension ≥Grade 3, number of patients (AML at enrollment (n = 30)) | Renal and urinary disorders ≥Grade 3, number of patients (AML at enrollment (n = 30)) | Respiratory failure ≥Grade 3, number of patients (AML at enrollment (n = 30)) | Vascular disorders ≥Grade 3, number of patients (AML at enrollment (n = 30))
4: General disorders and administration site conditions ≥Grade 3, number of patients (AML at enrollment (n = 30)) | Hypoxia ≥Grade 3, number of patients (AML at enrollment (n = 30)) | Pneumonia ≥Grade 3, number of patients (AML at enrollment (n = 30)) | Metabolism and nutritional disorders ≥Grade 3, number of patients (CML at enrollment (n = 5)) | Patients with AEs ≥Grade 3, number of patients (CML at enrollment (n = 5))
19: AML progression, number of patients (AML at enrollment (n = 30))
1: Abdominal Pain ≥Grade 3, number of patients (AML at enrollment (n = 30)) | Asthenia ≥Grade 3, number of patients (AML at enrollment (n = 30)) | Back Pain ≥Grade 3, number of patients (AML at enrollment (n = 30)) | Cardiac disorders ≥Grade 3, number of patients (AML at enrollment (n = 30)) | Cataract ≥Grade 3, number of patients (AML at enrollment (n = 30)) | Extremity Lower Edema ≥Grade 3, number of patients (AML at enrollment (n = 30)) | Eye disorders ≥Grade 3, number of patients (AML at enrollment (n = 30)) | Gastrointestinal disorders ≥Grade 3, number of patients (AML at enrollment (n = 30)) | Hallucinations ≥Grade 3, number of patients (AML at enrollment (n = 30)) | Heart failure ≥Grade 3, number of patients (AML at enrollment (n = 30)) | Hypocalcemia ≥Grade 3, number of patients (AML at enrollment (n = 30)) | Hypoglycemia ≥Grade 3, number of patients (AML at enrollment (n = 30)) | Hyponatremia ≥Grade 3, number of patients (AML at enrollment (n = 30)) | Hypovolemia ≥Grade 3, number of patients (AML at enrollment (n = 30)) | Musculoskeletal and connective tissue disorders ≥Grade 3, number of patients (AML at enrollment (n = 30)) | Penile Pain ≥Grade 3, number of patients (AML at enrollment (n = 30)) | Pleural Effusions ≥Grade 3, number of patients (AML at enrollment (n = 30)) | Psychiatric disorders ≥Grade 3, number of patients (AML at enrollment (n = 30)) | Reproductive system and breast disorders ≥Grade 3, number of patients (AML at enrollment (n = 30)) | Tumor lysis syndrome ≥Grade 3, number of patients (AML at enrollment (n = 30)) | Acute kidney injury ≥Grade 3, number of patients (CML at enrollment (n = 5)) | Asthenia ≥Grade 3, number of patients (CML at enrollment (n = 5)) | Cardiac disorders ≥Grade 3, number of patients (CML at enrollment (n = 5)) | Heart failure ≥Grade 3, number of patients (CML at enrollment (n = 5)) | Hypocalcemia ≥Grade 3, number of patients (CML at enrollment (n = 5)) | Hypoglycemia ≥Grade 3, number of patients (CML at enrollment (n = 5)) | Hypokalemia ≥Grade 3, number of patients (CML at enrollment (n = 5)) | Hyponatremia ≥Grade 3, number of patients (CML at enrollment (n = 5)) | Multi-organ failure ≥Grade 3, number of patients (CML at enrollment (n = 5)) | Renal and urinary disorders ≥Grade 3, number of patients (CML at enrollment (n = 5)) | Respiratory distress ≥Grade 3, number of patients (CML at enrollment (n = 5)) | Respiratory, thoracic, and mediastinal disorders ≥Grade 3, number of patients (CML at enrollment (n = 5)) | Cardiac disorders ≥Grade 3, number of patients (MDS at enrollment (n = 4)) | Heart failure ≥Grade 3, number of patients (MDS at enrollment (n = 4))
23: Patients with AEs ≥Grade 3, number of patients (AML at enrollment (n = 30))
8: Metabolism and nutritional disorders ≥Grade 3, number of patients (AML at enrollment (n = 30))
0: Abdominal Pain ≥Grade 3, number of patients (CML at enrollment (n = 5)) | Acidosis ≥Grade 3, number of patients (CML at enrollment (n = 5)) | Back Pain ≥Grade 3, number of patients (CML at enrollment (n = 5)) | Cataract ≥Grade 3, number of patients (CML at enrollment (n = 5)) | Dyspnea ≥Grade 3, number of patients (CML at enrollment (n = 5)) | Extremity Lower Edema ≥Grade 3, number of patients (CML at enrollment (n = 5)) | Eye disorders ≥Grade 3, number of patients (CML at enrollment (n = 5)) | Febrile neutropenia ≥Grade 3, number of patients (CML at enrollment (n = 5)) | Gastrointestinal disorders ≥Grade 3, number of patients (CML at enrollment (n = 5)) | Hallucinations ≥Grade 3, number of patients (CML at enrollment (n = 5)) | Hepatic failure ≥Grade 3, number of patients (CML at enrollment (n = 5)) | Hepatobiliary disorders ≥Grade 3, number of patients (CML at enrollment (n = 5)) | Hypotension ≥Grade 3, number of patients (CML at enrollment (n = 5)) | Hypovolemia ≥Grade 3, number of patients (CML at enrollment (n = 5)) | Hypoxia ≥Grade 3, number of patients (CML at enrollment (n = 5)) | Investigations ≥Grade 3, number of patients (CML at enrollment (n = 5)) | Musculoskeletal and connective tissue disorders ≥Grade 3, number of patients (CML at enrollment (n = 5)) | Neoplasms benign, malignant, and unspecified (incl. cysts and polyps) ≥Grade 3, number of patients (CML at enrollment (n = 5)) | Penile Pain ≥Grade 3, number of patients (CML at enrollment (n = 5)) | Platelet count decreased ≥Grade 3, number of patients (CML at enrollment (n = 5)) | Pleural Effusions ≥Grade 3, number of patients (CML at enrollment (n = 5)) | Pneumonia ≥Grade 3, number of patients (CML at enrollment (n = 5)) | Psychiatric disorders ≥Grade 3, number of patients (CML at enrollment (n = 5)) | Reproductive system and breast disorders ≥Grade 3, number of patients (CML at enrollment (n = 5)) | Respiratory failure ≥Grade 3, number of patients (CML at enrollment (n = 5)) | Vascular disorders ≥Grade 3, number of patients (CML at enrollment (n = 5)) | Abdominal Pain ≥Grade 3, number of patients (MDS at enrollment (n = 4)) | Acidosis ≥Grade 3, number of patients (MDS at enrollment (n = 4)) | Acute kidney injury ≥Grade 3, number of patients (MDS at enrollment (n = 4)) | Asthenia ≥Grade 3, number of patients (MDS at enrollment (n = 4)) | Back Pain ≥Grade 3, number of patients (MDS at enrollment (n = 4)) | Blood and lymphatic system disorders ≥Grade 3, number of patients (MDS at enrollment (n = 4)) | Cataract ≥Grade 3, number of patients (MDS at enrollment (n = 4)) | Dyspnea ≥Grade 3, number of patients (MDS at enrollment (n = 4)) | Extremity Lower Edema ≥Grade 3, number of patients (MDS at enrollment (n = 4)) | Eye disorders ≥Grade 3, number of patients (MDS at enrollment (n = 4)) | Febrile neutropenia ≥Grade 3, number of patients (MDS at enrollment (n = 4)) | Gastrointestinal disorders ≥Grade 3, number of patients (MDS at enrollment (n = 4)) | General disorders and administration site conditions ≥Grade 3, number of patients (MDS at enrollment (n = 4)) | Hallucinations ≥Grade 3, number of patients (MDS at enrollment (n = 4)) | Hepatic failure ≥Grade 3, number of patients (MDS at enrollment (n = 4)) | Hepatobiliary disorders ≥Grade 3, number of patients (MDS at enrollment (n = 4)) | Hypocalcemia ≥Grade 3, number of patients (MDS at enrollment (n = 4)) | Hypoglycemia ≥Grade 3, number of patients (MDS at enrollment (n = 4)) | Hypokalemia ≥Grade 3, number of patients (MDS at enrollment (n = 4))
6: Leukocytosis ≥Grade 3, number of patients (AML at enrollment (n = 30))
2: Hepatic failure ≥Grade 3, number of patients (AML at enrollment (n = 30)) | Hepatobiliary disorders ≥Grade 3, number of patients (AML at enrollment (n = 30)) | Investigations ≥Grade 3, number of patients (AML at enrollment (n = 30)) | Multi-organ failure ≥Grade 3, number of patients (AML at enrollment (n = 30)) | Neoplasms benign, malignant, and unspecified (incl. cysts and polyps) ≥Grade 3, number of patients (AML at enrollment (n = 30)) | Platelet count decreased ≥Grade 3, number of patients (AML at enrollment (n = 30)) | Respiratory distress ≥Grade 3, number of patients (AML at enrollment (n = 30)) | Blood and lymphatic system disorders ≥Grade 3, number of patients (CML at enrollment (n = 5)) | General disorders and administration site conditions ≥Grade 3, number of patients (CML at enrollment (n = 5)) | Leukocytosis ≥Grade 3, number of patients (CML at enrollment (n = 5)) | Tumor lysis syndrome ≥Grade 3, number of patients (CML at enrollment (n = 5)) | AML progression, number of patients (MDS at enrollment (n = 4))
10: Blood and lymphatic system disorders ≥Grade 3, number of patients (AML at enrollment (n = 30)) | Respiratory, thoracic, and mediastinal disorders ≥Grade 3, number of patients (AML at enrollment (n = 30))
5: AML progression, number of patients (CML at enrollment (n = 5))
